Our source for the EC50, IC50 and AC50 values is ChEMBL document CHEMBL1201862, “PubChem BioAssay data set” (2004).

The source made the active and inactive calls. A value given as a limit tells only on which side of the number the result lay.

The target in one test is T1, Protein RecA (Mycobacterium tuberculosis, UniProt P9WHJ3).
T1 sequence (P9WHJ3 whole entry): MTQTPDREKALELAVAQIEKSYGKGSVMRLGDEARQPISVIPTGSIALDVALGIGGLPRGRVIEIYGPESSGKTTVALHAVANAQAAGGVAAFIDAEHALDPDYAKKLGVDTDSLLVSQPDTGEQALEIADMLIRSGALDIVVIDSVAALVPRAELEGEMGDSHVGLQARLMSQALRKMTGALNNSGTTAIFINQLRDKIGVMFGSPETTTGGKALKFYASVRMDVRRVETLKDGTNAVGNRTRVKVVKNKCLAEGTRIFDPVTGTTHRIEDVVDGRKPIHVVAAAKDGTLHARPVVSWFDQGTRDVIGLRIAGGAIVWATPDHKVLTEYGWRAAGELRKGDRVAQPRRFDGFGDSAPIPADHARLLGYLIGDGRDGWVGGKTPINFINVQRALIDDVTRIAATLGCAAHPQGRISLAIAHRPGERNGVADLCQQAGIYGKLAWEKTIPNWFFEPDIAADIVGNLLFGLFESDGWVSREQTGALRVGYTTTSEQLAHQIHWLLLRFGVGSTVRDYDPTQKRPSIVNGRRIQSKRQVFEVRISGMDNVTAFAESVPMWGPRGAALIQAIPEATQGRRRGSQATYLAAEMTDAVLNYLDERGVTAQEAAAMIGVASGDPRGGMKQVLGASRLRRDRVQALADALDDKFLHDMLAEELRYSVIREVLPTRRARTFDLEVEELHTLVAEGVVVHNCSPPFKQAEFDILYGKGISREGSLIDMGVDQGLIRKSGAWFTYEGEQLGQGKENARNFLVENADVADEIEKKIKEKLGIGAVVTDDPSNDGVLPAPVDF
The test is described as follows: Fluorescence Cell-Free Homogeneous Dose Retest to Identify Inhibitors of RecA-Intein Splicing Activity. [Related pubchem assays (depositor defined):AID2097, AID2223, AID489010, AID492950]. It counts as functional.

In test [1] the target is Glucose-6-phosphate 1-dehydrogenase (Homo sapiens, UniProt P11413). Description: human G6PD enzyme inhibitors, dose response, selectivity assay for P. falciparum G6PD inhibitor project, biochemical, fluorescence (AID 504792). Type of test: functional.
The target of test [2] is T2, Replicative DNA helicase DnaB (Mycobacterium tuberculosis, UniProt P9WMR3).
T2 sequence (P9WMR3 whole entry): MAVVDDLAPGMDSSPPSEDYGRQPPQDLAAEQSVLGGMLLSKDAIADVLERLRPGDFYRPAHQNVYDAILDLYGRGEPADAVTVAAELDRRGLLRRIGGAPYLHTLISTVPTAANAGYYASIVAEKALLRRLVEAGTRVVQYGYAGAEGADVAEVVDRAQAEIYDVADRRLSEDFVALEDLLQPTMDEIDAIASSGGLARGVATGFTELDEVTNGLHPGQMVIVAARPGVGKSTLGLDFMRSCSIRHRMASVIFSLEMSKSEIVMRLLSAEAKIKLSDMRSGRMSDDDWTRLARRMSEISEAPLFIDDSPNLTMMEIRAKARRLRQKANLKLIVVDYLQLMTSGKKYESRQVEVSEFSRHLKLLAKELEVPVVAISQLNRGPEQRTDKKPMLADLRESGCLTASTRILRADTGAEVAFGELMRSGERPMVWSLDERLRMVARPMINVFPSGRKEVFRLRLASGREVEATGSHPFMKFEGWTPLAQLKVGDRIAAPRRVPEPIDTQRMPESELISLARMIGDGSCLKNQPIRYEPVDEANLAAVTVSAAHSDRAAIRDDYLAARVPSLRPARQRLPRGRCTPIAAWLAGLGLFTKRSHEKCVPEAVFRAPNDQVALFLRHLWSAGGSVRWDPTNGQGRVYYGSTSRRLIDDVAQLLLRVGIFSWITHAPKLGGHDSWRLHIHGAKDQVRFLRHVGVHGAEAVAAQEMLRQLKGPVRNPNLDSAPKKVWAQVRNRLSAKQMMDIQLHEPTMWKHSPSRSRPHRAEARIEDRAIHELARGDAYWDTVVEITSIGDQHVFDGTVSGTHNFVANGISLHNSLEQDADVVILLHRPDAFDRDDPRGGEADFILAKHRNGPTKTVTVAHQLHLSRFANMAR
Description: DnaB intein splicing inhibitors, dose response, biochemical, cell-free fluorescence (AID 449749). It counts as functional.

Another test deals with Trypsin (Sus scrofa, UniProt P00761). The test is described as follows: porcine trypsin inhibitors, dose response, selectivity assay for Rce1 protease inhibitor project, biochemical, quenched peptide fluorescence, cherry-pick (AID 488789).
For another test, the target named is CAAX prenyl protease 1 (Saccharomyces cerevisiae S288c, UniProt P47154). The test is described as follows: Ste24 protease inhibitors, dose response, biochemical, S. cerevisiae, plate reader, cherry-pick (AID 488815).
The target in test [3] is T3, CAAX prenyl protease 2 (Homo sapiens, UniProt Q9Y256).
T3 sequence (Q9Y256 whole entry): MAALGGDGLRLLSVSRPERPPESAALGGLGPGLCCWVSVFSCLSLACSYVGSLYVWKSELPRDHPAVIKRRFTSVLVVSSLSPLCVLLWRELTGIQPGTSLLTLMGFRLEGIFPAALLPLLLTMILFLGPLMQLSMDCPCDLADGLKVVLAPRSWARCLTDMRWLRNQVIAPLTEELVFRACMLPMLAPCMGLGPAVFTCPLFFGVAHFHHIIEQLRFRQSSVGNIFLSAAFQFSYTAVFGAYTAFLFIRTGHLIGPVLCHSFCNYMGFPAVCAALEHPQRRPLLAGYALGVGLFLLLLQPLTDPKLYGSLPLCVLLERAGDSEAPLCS
The test is described as follows: human Rce1 protease inhibitors, dose response, biochemical, yeast membranes, quenched-peptide fluorescence, cherry-pick (AID 588849).

Test [4] concerns the target T4, CAAX prenyl protease 2 (Saccharomyces cerevisiae S288c, UniProt Q03530).
T4 sequence (Q03530 whole entry): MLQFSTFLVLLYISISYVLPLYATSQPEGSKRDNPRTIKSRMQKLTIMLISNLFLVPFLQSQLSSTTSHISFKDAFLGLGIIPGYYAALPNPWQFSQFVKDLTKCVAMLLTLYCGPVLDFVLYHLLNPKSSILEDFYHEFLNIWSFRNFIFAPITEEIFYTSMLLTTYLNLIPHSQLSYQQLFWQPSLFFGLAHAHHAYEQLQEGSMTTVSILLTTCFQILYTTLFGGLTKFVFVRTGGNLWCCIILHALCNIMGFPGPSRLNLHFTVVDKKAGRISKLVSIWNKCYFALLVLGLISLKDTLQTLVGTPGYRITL
Type of test: biochemical.

In test [5] the target is T5, Short transient receptor potential channel 4 (Mus musculus, UniProt Q9QUQ5).
T5 sequence (Q9QUQ5 whole entry): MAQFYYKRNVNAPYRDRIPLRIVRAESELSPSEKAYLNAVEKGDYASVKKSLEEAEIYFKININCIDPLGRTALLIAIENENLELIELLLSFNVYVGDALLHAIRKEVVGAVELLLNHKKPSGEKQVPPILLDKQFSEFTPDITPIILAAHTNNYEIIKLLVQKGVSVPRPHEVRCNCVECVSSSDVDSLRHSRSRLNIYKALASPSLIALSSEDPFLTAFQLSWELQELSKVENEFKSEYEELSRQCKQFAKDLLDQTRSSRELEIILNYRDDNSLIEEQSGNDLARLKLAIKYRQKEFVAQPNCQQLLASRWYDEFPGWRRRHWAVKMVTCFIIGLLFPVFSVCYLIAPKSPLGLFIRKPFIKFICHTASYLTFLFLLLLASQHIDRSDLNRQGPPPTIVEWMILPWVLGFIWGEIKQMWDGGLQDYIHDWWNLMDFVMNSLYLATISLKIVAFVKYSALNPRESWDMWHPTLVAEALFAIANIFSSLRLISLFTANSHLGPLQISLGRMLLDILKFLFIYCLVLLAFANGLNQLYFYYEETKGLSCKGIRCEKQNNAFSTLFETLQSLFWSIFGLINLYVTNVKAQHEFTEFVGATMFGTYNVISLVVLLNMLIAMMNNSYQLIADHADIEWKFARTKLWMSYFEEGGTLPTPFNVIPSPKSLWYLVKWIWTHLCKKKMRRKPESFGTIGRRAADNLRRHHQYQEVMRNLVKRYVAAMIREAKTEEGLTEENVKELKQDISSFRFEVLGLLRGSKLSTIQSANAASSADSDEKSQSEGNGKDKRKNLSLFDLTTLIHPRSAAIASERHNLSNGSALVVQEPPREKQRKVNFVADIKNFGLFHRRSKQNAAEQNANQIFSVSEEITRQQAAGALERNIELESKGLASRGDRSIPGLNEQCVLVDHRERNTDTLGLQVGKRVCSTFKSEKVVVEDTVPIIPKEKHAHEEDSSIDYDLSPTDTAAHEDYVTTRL
The test is described as follows: mouse TRPC4 channel inhibitors, dose response, cell-based, HEK293 TRPC4/mu-opioid, Fluo-4 calcium (AID 434942).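 Note: potency of inhibitors blocking the TRPC4 calcium response.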 It counts as functional.

Test [6] can be described thus: inhibitors of intracellular T. cruzi replication, confirmation, NIH3T3 host cells, beta-gal luminescence (AID 2044).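 Note: intracellular parasites grown in NIH/3T3 mouse fibroblasts as host cells; luminescent beta-galactosidase reporter signal from transgenic T. cruzi replicating inside host cells; inhibitors lower the luminescence signal.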 Type of test: functional, cell-based.
Test [7] in a line: cytotoxicity in HEK-293T NF-kB-Luc cells, dose response, cytotoxicity control for B/T-cell NF-kB inhibitor project, cell-based, uHTS hits (AID 489019).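 Note: IC50 reflects cytotoxicity as loss of cell viability.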 It counts as functional.
The subject of a further test is Jurkat. The test is described as follows: antigen receptor-induced NF-kB inhibitors, dose response, Jurkat, luciferase reporter, luminescence, B- and T-cell (AID 489004).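 Note: NF-kB luciferase reporter Jurkat cells stimulated with PMA plus ionomycin.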 It counts as functional, cell-based. Particulars: Homo sapiens. (In a reporter assay the amount or activity of a reporter protein is the signal.)
A short description of test [8]: cytotoxicity toward NIH3T3 fibroblasts, dose response, counter-screen, cell-based, ATP luminescence, mouse fibroblasts (AID 2010).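 Note: cells exposed to compound for about 90 hours before reading.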 It counts as functional. In general terms: Counterscreens check selectivity or assay interference.
A further test has as its system INS1. The test is described as follows: beta cell apoptosis inhibitors, cytokine rescue, dose response, luminescence, retest (AID 449756).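 Note: cell death triggered by IL-1 beta plus TNF-alpha plus IFN-gamma mixture; protective hits raise ATP signal compared with cytokine alone wells.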 Type of test: functional, cell-based. Particulars: Rattus norvegicus.
The nature of test [9]: HepG2 cell cytotoxicity, dose response, cytotoxicity control, plate reader, cherry-pick, antagonist series (AID 743416). Type of test: functional, cell-based.
The nature of test [10]: HEK293 cell cytotoxicity, dose response, cytotoxicity control, plate reader, cherry-picked samples (AID 743446). Type of test: functional, cell-based.
A short description of test [11]: Luminescence Cell-Based Dose Confirmation HTS to Identify Inhibitors of Platelet Dense Granule Release. [Related pubchem assays: 1663 (Primary HTS), 1678 (Summary of Project)]. Type of test: functional.
In test [12] the target is Heat shock protein HSP 90-alpha (Homo sapiens, UniProt P07900). It counts as functional, organism-based.
Test [13] is described as follows: HepG2 cell cytotoxicity, dose response, cytotoxicity control for Shn3 inhibitor project, CellTiter-Glo, cherry-picked (AID 624134). It counts as functional, cell-based. In general terms: Cellular ATP, detected with luciferase, serves as a proxy for viable cell number.
In test [14] the target is Luciferin 4-monooxygenase (Photinus pyralis, UniProt P08659). The test is described as follows: firefly luciferase enzyme inhibitors, dose response, biochemical, luminescence (AID 1891).
A short description of test [15]: control 3'UTR Renilla luciferase suppression, dose response, counter-screen for Shn3 inhibitor project, cell-based, Clone20-Shn3RL, cherry-picked (AID 624133). Type of test: functional.
A short description of test [16]: MC4R antagonists, dose response, counter-screen for LGR2 antagonist project, cell-based, plate reader, cherry pick (AID 743444).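 Note: transfected HEK 293 cells stimulated with alpha-MSH peptide; potency of inhibitors of the alpha-MSH evoked signal.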 It counts as functional.
Test [17] in a line: LGR2 antagonists, dose response, cell-based, HEK293, CRE-luciferase reporter, cherry pick, set 2 (AID 743343).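 Note: transfected cells were stimulated with diluted bursicon conditioned medium after compound addition.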 It counts as functional.
A short description of test [18]: Shn3 3'UTR reporter inhibitors, dose response, cell-based, Clone20 osteoblasts, firefly luciferase, cherry-picked (AID 624132).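 Note: firefly luciferase luminescence from reporter carrying the Shn3 3'UTR in osteoblasts.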 Type of test: functional.
The nature of test [19]: A549 cell cytotoxicity, dose response, cytotoxicity control, plate reader, cherry-pick, antagonist series (AID 743412). Type of test: functional, cell-based.

Sequence of CAAX prenyl protease 1 (P47154 whole entry): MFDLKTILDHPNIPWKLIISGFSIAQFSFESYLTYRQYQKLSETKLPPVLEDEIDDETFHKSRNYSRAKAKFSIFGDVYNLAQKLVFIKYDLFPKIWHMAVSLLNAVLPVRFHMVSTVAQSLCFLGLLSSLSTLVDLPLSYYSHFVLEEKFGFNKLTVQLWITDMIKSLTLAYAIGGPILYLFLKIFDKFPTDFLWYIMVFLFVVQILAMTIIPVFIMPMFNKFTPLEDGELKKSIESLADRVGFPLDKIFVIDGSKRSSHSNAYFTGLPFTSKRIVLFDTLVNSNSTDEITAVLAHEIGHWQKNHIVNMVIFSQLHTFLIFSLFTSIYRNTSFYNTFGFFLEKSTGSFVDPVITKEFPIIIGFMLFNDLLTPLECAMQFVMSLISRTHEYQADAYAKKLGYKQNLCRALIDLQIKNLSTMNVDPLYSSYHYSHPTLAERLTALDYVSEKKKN
Sequence of Trypsin (P00761 whole entry): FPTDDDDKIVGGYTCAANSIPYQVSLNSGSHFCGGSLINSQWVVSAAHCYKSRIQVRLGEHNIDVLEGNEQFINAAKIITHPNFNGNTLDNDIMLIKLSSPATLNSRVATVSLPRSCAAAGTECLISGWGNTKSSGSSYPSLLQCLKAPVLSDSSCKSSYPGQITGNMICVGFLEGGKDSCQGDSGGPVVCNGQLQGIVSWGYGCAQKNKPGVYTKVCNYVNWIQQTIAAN
Sequence of Glucose-6-phosphate 1-dehydrogenase (P11413 whole entry): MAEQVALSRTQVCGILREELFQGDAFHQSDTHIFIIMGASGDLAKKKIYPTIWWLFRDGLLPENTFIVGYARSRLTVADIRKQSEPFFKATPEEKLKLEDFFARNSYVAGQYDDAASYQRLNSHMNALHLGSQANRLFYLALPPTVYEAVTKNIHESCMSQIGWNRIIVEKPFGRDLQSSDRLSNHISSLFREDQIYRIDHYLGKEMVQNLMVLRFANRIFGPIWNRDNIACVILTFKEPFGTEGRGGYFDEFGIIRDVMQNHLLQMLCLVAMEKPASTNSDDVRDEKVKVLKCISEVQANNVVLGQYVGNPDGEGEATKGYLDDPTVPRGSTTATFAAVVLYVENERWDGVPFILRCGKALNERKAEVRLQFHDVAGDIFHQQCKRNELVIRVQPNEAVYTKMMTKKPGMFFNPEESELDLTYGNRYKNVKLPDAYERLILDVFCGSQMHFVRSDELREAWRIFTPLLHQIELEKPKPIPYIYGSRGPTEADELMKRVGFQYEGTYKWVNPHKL
Sequence of Luciferin 4-monooxygenase (P08659 whole entry): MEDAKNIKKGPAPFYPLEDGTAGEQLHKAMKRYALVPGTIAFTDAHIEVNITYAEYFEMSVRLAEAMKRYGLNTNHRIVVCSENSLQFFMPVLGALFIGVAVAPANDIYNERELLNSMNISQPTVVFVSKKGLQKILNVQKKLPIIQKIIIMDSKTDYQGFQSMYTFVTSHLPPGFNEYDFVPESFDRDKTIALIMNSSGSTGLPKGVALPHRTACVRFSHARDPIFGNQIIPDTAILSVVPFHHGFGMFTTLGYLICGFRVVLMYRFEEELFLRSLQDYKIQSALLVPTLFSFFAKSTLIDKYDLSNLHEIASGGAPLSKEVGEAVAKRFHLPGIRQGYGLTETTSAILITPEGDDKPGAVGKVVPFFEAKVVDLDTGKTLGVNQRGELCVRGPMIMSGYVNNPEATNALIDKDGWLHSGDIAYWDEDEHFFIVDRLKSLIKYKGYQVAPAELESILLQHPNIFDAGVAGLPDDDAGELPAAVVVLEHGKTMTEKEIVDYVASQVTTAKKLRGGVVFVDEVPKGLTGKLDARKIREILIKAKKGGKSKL

As usually defined, the EC50 is the concentration that produces a half-maximal response. One may read the IC50 as the concentration that inhibits the measured activity by half. For orientation: AC50 means the concentration giving half of the maximal activity seen. Turning to `Cc1ccc(S(=O)(=O)N(C(=O)c2ccncc2)c2ccc(OC(=O)c3ccncc3)c3ccccc23)cc1`, the EC50 on Protein RecA is 0.315 µM (active). In addition, the IC50 in [1] was > 80 µM (inactive). Moreover, the AC50 in test [2] was 1.51 µM (active).
Regarding `C[n+]1ccc(-c2ccccc2)c2ccccc21`, the AC50 at Trypsin was 23.1 µM (active); at CAAX prenyl protease 1, 2.18 µM (active); at CAAX prenyl protease 2 [3], 5.8 µM (active); on CAAX prenyl protease 2 [4] it was 54.7 µM (active).
Turning to `CCCCC[n+]1cccc2c3ccccc3ccc21`, the AC50 on Trypsin was 8.59 µM (active); on CAAX prenyl protease 1 it was 4.72 µM (active); at CAAX prenyl protease 2 [3] it was 7.74 µM (active); on CAAX prenyl protease 2 [4], > 100 µM (inactive); in the test with INS1, 4.56 µM (active). In addition, the EC50 in [5] was 3.35 µM (active); in [6], 0.466 µM (active); in test [8], > 30 µM (not active). Moreover, the IC50 (in test [7]; in the test on Jurkat) was > 80 µM (inactive) throughout.
As for `COc1ccc(-c2nc(-c3ccccn3)no2)cc1`, the AC50 is 3.7 µM (active) in test [9]; 3.26 µM (active) in test [10]; 20.4 µM (active) in test [12]; 7.01 µM (active) in test [13]; 26.9 µM (active) in test [15]; 0.504 µM (active) in test [16]. The AC50 in [17] was 0.415 µM (active); in test [18], 1.92 µM (active); with INS1, 3.81 µM (active); in [19], 3.8 µM (active). For the same compound, the EC50 in test [11] was 2.15 µM (active); in test [14], 0.548 µM (active). For the same compound, the IC50 is > 80 µM (inactive) in test [7] and 0.88 µM (active) with Jurkat.
